# Patent publication US10040759B2, “Substituted azetidinyl compounds as GlyT1 inhibitors” (DART NEUROSCIENCE (CAYMAN) LTD., priority 2014, dated 2018)
# Target: T1, GlyT1 (Homo sapiens, UniProt P48067)
# T1 construct: expressed in transfected cells
# T1 sequence (P48067 1-706): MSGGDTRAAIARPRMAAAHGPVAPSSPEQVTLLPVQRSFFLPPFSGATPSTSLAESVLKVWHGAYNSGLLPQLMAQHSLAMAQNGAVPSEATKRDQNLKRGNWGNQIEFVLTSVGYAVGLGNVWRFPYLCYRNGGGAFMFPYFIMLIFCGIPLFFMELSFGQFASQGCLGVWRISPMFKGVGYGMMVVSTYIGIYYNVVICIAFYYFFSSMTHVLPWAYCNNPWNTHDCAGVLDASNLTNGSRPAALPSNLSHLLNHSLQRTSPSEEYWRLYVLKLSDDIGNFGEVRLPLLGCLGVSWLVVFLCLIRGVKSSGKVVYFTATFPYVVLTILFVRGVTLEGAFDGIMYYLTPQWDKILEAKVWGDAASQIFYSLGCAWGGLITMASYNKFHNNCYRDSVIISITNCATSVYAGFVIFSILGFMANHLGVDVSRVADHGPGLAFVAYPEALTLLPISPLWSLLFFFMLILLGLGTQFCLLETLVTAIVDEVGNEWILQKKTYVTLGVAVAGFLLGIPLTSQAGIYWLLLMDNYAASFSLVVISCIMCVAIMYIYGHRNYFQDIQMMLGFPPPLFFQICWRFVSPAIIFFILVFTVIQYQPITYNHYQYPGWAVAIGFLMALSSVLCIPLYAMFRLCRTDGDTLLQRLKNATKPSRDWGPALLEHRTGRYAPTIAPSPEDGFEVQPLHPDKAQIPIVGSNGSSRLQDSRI
# Test: Glycine Transporter 1 (GlyT1) uptake assay, scintillation proximity assay of [14C]-glycine uptake
# Assay type: cell-based
# Details: [14C]-glycine uptake; read-out: GlyT1 (pIC50) (converted)
# How it was run: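 IC50 values were derived by four-parameter logistic fitting of counts. The 2× compound solutions were made by 1:100 dilution into HBSS of DMSO serial dilutions.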
row,IC50,SMILES
1,100 to 1000 nM,"COc1c(S(C)(=O)=O)ccc(OC(C)C)c1C(=O)N1CC(c2ccc(C(F)(F)F)cc2)C1 [Example 217, 1-[3-Methanesulfonyl-2-methoxy-6-(propan-2-yloxy)benzoyl]-3-[4-(trifluoromethyl)phenyl]azetidine]"
2,100 to 1000 nM,"COc1c(S(C)(=O)=O)ccc(OC(C)C)c1C(=O)N1CC(Oc2ccc(C(F)(F)F)cc2)C1 [Example 218, 1-[3-Methanesulfonyl-2-methoxy-6-(propan-2-yloxy)benzoyl]-3-[4-(trifluoromethyl)phenoxy]azetidine]"
3,100 to 1000 nM,"COc1c(S(C)(=O)=O)ccc(OC(C)C)c1C(=O)N1CC(Oc2ccc(Cl)cc2)C1 [Example 219, 3-(4-Chlorophenoxy)-1-[3-methanesulfonyl-2-methoxy-6-(propan-2-yloxy)benzoyl]azetidine]"
4,100 to 1000 nM,"COc1c(S(C)(=O)=O)ccc(OC(C)C)c1C(=O)N1CC(Oc2ccc(F)cc2F)C1 [Example 220, 3-(2,4-Difluorophenoxy)-1-[3-methanesulfonyl-2-methoxy-6-(propan-2-yloxy)benzoyl]azetidine]"
5,< 100 nM,"COc1c(S(C)(=O)=O)ccc(OC(C)C)c1C(=O)N1CC(Oc2c(F)cc(F)cc2F)C1 [Example 221, 1-[3-Methanesulfonyl-2-methoxy-6-(propan-2-yloxy)benzoyl]-3-(2,4,6-trifluorophenoxy)azetidine]"
6,100 to 1000 nM,"COc1c(S(C)(=O)=O)ccc(OCC(F)(F)F)c1C(=O)N1CC(Oc2ccc(Cl)cc2)C1 [Example 222, 3-(4-Chlorophenoxy)-1-[3-methanesulfonyl-2-methoxy-6-(2,2,2-trifluoroethoxy)benzoyl]azetidine]"
7,100 to 1000 nM,"COc1c(S(C)(=O)=O)ccc(OCC(F)(F)F)c1C(=O)N1CC(Oc2ccc(C(F)(F)F)cc2)C1 [Example 223, 1-[3-Methanesulfonyl-2-methoxy-6-(2,2,2-trifluoroethoxy)benzoyl]-3-[4-(trifluoromethyl)phenoxy]azetidine]"
8,100 to 1000 nM,"COc1c(S(C)(=O)=O)ccc(OCC(F)(F)F)c1C(=O)N1CC(Oc2ccc(F)cc2C)C1 [Example 224, 3-(4-Fluoro-2-methylphenoxy)-1-[3-methanesulfonyl-2-methoxy-6-(2,2,2-trifluoroethoxy)benzoyl]azetidine]"
9,100 to 1000 nM,"COc1c(S(C)(=O)=O)ccc(OCC(F)(F)F)c1C(=O)N1CC(Oc2c(F)cc(F)cc2F)C1 [Example 225, 1-[3-Methanesulfonyl-2-methoxy-6-(2,2,2-trifluoroethoxy)benzoyl]-3-(2,4,6-trifluorophenoxy)azetidine]"
10,100 to 1000 nM,"COc1c(S(C)(=O)=O)ccc(OCC(F)(F)F)c1C(=O)N1CC(Oc2cc(F)c(F)cc2F)C1 [Example 226, 1-[3-Methanesulfonyl-2-methoxy-6-(2,2,2-trifluoroethoxy)benzoyl]-3-(2,4,5-trifluorophenoxy)azetidine]"
11,100 to 1000 nM,"COc1c(S(C)(=O)=O)ccc(OCC(F)(F)F)c1C(=O)N1CC(Oc2ccc(F)cc2F)C1 [Example 227, 3-(2,4-Difluorophenoxy)-1-[3-methanesulfonyl-2-methoxy-6-(2,2,2-trifluoroethoxy)benzoyl]azetidine]"
12,100 to 1000 nM,"COc1c(S(C)(=O)=O)ccc(OCC(F)(F)F)c1C(=O)N1CC(c2ccc(F)c(F)c2)C1 [Example 228, 3-(3,4-Difluorophenyl)-1-[3-methanesulfonyl-2-methoxy-6-(2,2,2-trifluoroethoxy)benzoyl]azetidine]"
13,100 to 1000 nM,"COc1c(S(C)(=O)=O)ccc(OCC(F)(F)F)c1C(=O)N1CC(c2ccc(C(F)(F)F)cn2)C1 [Example 229, 2-{1-[3-Methanesulfonyl-2-methoxy-6-(2,2,2-trifluoroethoxy)benzoyl]azetidin-3-yl}-5-(trifluoromethyl)pyridine]"
14,100 to 1000 nM,"COc1c(S(C)(=O)=O)ccc(OCC(F)(F)F)c1C(=O)N1CC(c2ncc(C(F)(F)F)cc2Cl)C1 [Example 230, 3-Chloro-2-{1-[3-methanesulfonyl-2-methoxy-6-(2,2,2-trifluoroethoxy)benzoyl]azetidin-3-yl}-5-(trifluoromethyl)pyridine]"
15,100 to 1000 nM,"COc1c(S(C)(=O)=O)ccc(OCC(F)(F)F)c1C(=O)N1CC(c2ncc(C(F)(F)F)cc2F)C1 [Example 231, 3-Fluoro-2-{1-[3-methanesulfonyl-2-methoxy-6-(2,2,2-trifluoroethoxy)benzoyl]azetidin-3-yl}-5-(trifluoromethyl)pyridine]"
16,< 100 nM,"COc1c(S(C)(=O)=O)ccc(OCC(F)(F)F)c1C(=O)N1CC(Oc2ccc(Cl)cn2)C1 [Example 232, 5-Chloro-2-({1-[3-methanesulfonyl-2-methoxy-6-(2,2,2-trifluoroethoxy)benzoyl]azetidin-3-yl}oxy)pyridine]"
17,100 to 1000 nM,"COc1c(S(C)(=O)=O)ccc(O[C@@H](C)C(F)(F)F)c1C(=O)N1CC(Oc2ccc(Cl)cn2)C1 [Example 233, 5-Chloro-2-{[1-(3-methanesulfonyl-2-methoxy-6-{[(2S)-1,1,1-trifluoropropan-2-yl]oxy}benzoyl)azetidin-3-yl]oxy}pyridine]"
18,< 100 nM,"COc1c(S(C)(=O)=O)ccc(O[C@@H](C)C(F)(F)F)c1C(=O)N1CC(c2ncccc2Cl)C1 [Example 234, 3-Chloro-2-[1-(3-methanesulfonyl-2-methoxy-6-{[(2S)-1,1,1-trifluoropropan-2-yl]oxy}benzoyl)azetidin-3-yl]pyridine]"
19,< 100 nM,"COc1c(S(C)(=O)=O)ccc(OCC(F)(F)F)c1C(=O)N1CC(c2ccc(C(F)(F)F)cc2)C1 [Example 235, 1-[3-Methanesulfonyl-2-methoxy-6-(2,2,2-trifluoroethoxy)benzoyl]-3-[4-(trifluoromethyl)phenyl]azetidine]"
20,< 100 nM,"COc1c(S(C)(=O)=O)ccc(O[C@@H](C)C(F)(F)F)c1C(=O)N1CC(c2ccc(C#N)cc2Cl)C1 [Example 236, 3-Chloro-4-[1-(3-methanesulfonyl-2-methoxy-6-{[(2S)-1,1,1-trifluoropropan-2-yl]oxy}benzoyl)azetidin-3-yl]benzonitrile]"
21,< 100 nM,"COc1c(S(C)(=O)=O)ccc(OCC(F)(F)F)c1C(=O)N1CC(c2ccc(C#N)cc2Cl)C1 [Example 237, 3-Chloro-4-{1-[3-methanesulfonyl-2-methoxy-6-(2,2,2-trifluoroethoxy)benzoyl]azetidin-3-yl}benzonitrile]"
22,< 100 nM,"COc1c(S(C)(=O)=O)ccc(OCC(C)(C)C)c1C(=O)N1CC(c2ccc(C(F)(F)F)cc2)C1 [Example 238, 1-[6-(2,2-Dimethylpropoxy)-3-methanesulfonyl-2-methoxybenzoyl]-3-[4-(trifluoromethyl)phenyl]azetidine]"
23,< 100 nM,"COc1c(S(C)(=O)=O)ccc(OCC(C)(C)C)c1C(=O)N1CC(c2ncc(C(F)(F)F)cc2Cl)C1 [Example 239, 3-Chloro-2-{1-[6-(2,2-dimethylpropoxy)-3-methanesulfonyl-2-methoxybenzoyl]azetidin-3-yl}-5-(trifluoromethyl)pyridine]"
24,100 to 1000 nM,"COc1c(S(C)(=O)=O)ccc(OCC(C)(C)C)c1C(=O)N1CC(Oc2c(F)cc(F)cc2F)C1 [Example 240, 1-[6-(2,2-Dimethylpropoxy)-3-methanesulfonyl-2-methoxybenzoyl]-3-(2,4,6-trifluorophenoxy)azetidine]"
25,100 to 1000 nM,"COc1c(S(C)(=O)=O)ccc(OCC(C)(C)C)c1C(=O)N1CC(Oc2cc(F)c(F)cc2F)C1 [Example 241, 1-[6-(2,2-Dimethylpropoxy)-3-methanesulfonyl-2-methoxybenzoyl]-3-(2,4,5-trifluorophenoxy)azetidine]"
26,100 to 1000 nM,"CCS(=O)(=O)c1ccc(OC(C)C)c(C(=O)N2CC(c3ccc(C(F)(F)F)cc3)C2)c1OC [Example 242, 1-[3-(Ethanesulfonyl)-2-methoxy-6-(propan-2-yloxy)benzoyl]-3-[4-(trifluoromethyl)phenyl]azetidine]"
27,100 to 1000 nM,"CCS(=O)(=O)c1ccc(OC(C)C)c(C(=O)N2CC(c3ncc(C(F)(F)F)cc3Cl)C2)c1OC [Example 243, 3-Chloro-2-{1-[3-(ethanesulfonyl)-2-methoxy-6-(propan-2-yloxy)benzoyl]azetidin-3-yl}-5-(trifluoromethyl)pyridine]"
28,< 100 nM,"CCS(=O)(=O)c1ccc(OC(C)C)c(C(=O)N2CC(Oc3c(F)cc(F)cc3F)C2)c1OC [Example 244, 1-[3-(Ethanesulfonyl)-2-methoxy-6-(propan-2-yloxy)benzoyl]-3-(2,4,6-trifluorophenoxy)azetidine]"
29,< 100 nM,"CCS(=O)(=O)c1ccc(OC(C)C)c(C(=O)N2CC(Oc3cc(F)c(F)cc3F)C2)c1OC [Example 245, 1-[3-(Ethanesulfonyl)-2-methoxy-6-(propan-2-yloxy)benzoyl]-3-(2,4,5-trifluorophenoxy)azetidine]"
30,< 100 nM,"COc1c(S(C)(=O)=O)ccc(O[C@@H](C)C(F)(F)F)c1C(=O)N1CC(c2ccc3ncoc3c2)C1 [Example 246, 6-[1-(3-Methanesulfonyl-2-methoxy-6-{[(2S)-1,1,1-trifluoropropan-2-yl]oxy}benzoyl)azetidin-3-yl]-1,3-benzoxazole]"
